Laboratory results as given in patent US8003081B2, “Method for improvement of tolerance for therapeutically effective agents delivered by inhalation” (priority 2004, dated 2011).
Read-outs that look alike come from different tables or passages of the source.

Experiments:
[1] = Shelf-life and storage stability of lidocaine formulations; format: physicochemical
[2] = tested on: mild to moderate asthma patients; conditions: placebo=0.35
[3] = 100 mg in 2.5 ml of 40 mg/ml solution, PARI LC PLUS nebulizer; cited from earlier work

## CCN(CC)CC(=O)Nc1c(C)cccc1C [lidocaine, acetamide 2-(diethylamino)-N-(2,6-dimethylphenyl)]
[1]; 1%, 4% or 10% solution in Blow-Fill-Seal vials with overwrap, room temperature
  stable without loss of strength: 9-12 months
[1]; dry form
  shelf-life of the dry form: at least 2 years
[2]; 10 mg lidocaine, p=0.012 v. placebo
  AQLQ environmental domain, mean change at week 12 from baseline: 2.09
[2]; 40 mg lidocaine, p=0.01 v. placebo
  AQLQ environmental domain, mean change at week 12 from baseline: 2.45
[3]
  duration of oral numbing of lips, tongue and mucosa with impaired gag reflex following inhalation: approximately 15 minutes
